Measured values: US11345666B2, “Phenyl and pyridinyl substituted imidazoles as modulators of RORγT” (Janssen Pharmaceutica NV, priority 2018, dated 2022)
pIC50, pKd: −log10 of the molar value. Marks after values point to notes of the source that are not given here.

Key:
[1] = target: human RORγt ligand binding domain (RORγt LBD) (Homo sapiens (Human), UniProt P51449); assay: RORγt ThermoFluor assay
In short: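 Thermal shift of His-tagged human RORγt LBD (0.065 mg/mL) with 60 μM 1,8-ANS in 100 mM Hepes pH 7.0, 10 mM NaCl, 2.5 mM GSH, 0.002% Tween-20, heated at 1° C./min. Compounds in 1:2 series from a 10 mM DMSO stock; KD estimated from ΔTm using protein unfolding thermodynamics.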

[2] = target: full-length human RORγt (Homo sapiens (Human), UniProt P51449); assay: RORγt (full-length human) reporter assay, conditions A or B; format: cell-based; conditions: for pIC50: HEK293T cells, read-out: RORγt (FL) Reporter Assay A or B, IC50; for inhibition at 2 µM: 2 μM compound concentration (**); for inhibition at 0.67 µM: 0.67 μM compound concentration (****)
In short: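 HEK293T cells transiently co-transfected (PEI) with GAL4-DBD–RORγt, GAL4-firefly luciferase and CMV-Renilla reporters; condition A 35,000 cells/well, 170.5 ng DNA/well; condition B 8750 cells/well, 42.6 ng DNA/well.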

[3] = 3 μM compound concentration (*), read-out: RORγt (FL) Reporter Assay A or B, % inhibition
[4] = read-out: RORγt (FL) Reporter Assay A or B, % inhibition

full-length human RORγt, sequence (P51449 other isoform, or with tags, fused parts or gaps): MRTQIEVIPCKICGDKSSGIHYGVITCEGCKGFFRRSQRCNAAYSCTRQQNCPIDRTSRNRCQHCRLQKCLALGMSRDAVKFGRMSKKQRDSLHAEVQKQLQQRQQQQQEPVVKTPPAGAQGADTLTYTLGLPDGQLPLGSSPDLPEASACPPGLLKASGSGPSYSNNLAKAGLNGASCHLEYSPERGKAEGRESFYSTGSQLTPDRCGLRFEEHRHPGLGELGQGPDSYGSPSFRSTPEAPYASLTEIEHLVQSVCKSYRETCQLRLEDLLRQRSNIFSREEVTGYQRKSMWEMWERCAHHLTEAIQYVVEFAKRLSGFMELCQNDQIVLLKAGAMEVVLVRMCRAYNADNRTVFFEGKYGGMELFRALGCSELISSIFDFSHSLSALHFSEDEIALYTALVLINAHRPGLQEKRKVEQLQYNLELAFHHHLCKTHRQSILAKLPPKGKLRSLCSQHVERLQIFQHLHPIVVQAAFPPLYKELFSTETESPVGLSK
human RORγt ligand binding domain (RORγt LBD), sequence (P51449 other isoform, or with tags, fused parts or gaps): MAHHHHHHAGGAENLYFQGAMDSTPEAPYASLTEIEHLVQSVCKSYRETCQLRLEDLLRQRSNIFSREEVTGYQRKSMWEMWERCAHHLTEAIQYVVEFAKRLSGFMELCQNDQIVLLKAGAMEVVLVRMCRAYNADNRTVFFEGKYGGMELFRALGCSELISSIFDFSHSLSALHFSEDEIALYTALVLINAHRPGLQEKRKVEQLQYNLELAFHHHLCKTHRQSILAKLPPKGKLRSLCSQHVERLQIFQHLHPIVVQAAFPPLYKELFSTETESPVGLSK

| pKd [1] | inhibition at 3 µM [2, 3] | pIC50 [2] | inhibition at 2 µM [2, 4] | inhibition at 6 µM ([2]; read-out: RORγt (FL) Reporter Assay A or B, % inhibition @ 6 μM, 6 μM compound concentration) | inhibition at 0.22 µM ([2]; 0.22 μM compound concentration (******), read-out: RORγt (FL) Reporter Assay A or B, % inhibition) | inhibition at 0.67 µM [2, 4] | Structure (SMILES) | RORγt (FL) Reporter Assay A or B, % inhibition ([2]; 3 μM compound concentration (*)) |
| --- | --- | --- | --- | --- | --- | --- | --- | --- |
| 8.01 | 98% | 7.12 |  |  |  |  | CCc1nc(C(=O)NC[C@H]2CC[C@H](S(C)(=O)=O)CC2)c(Cl)n1-c1ncc(C[C@H](C)C(F)(F)F)cc1OC(F)F (single isomer, unassigned) [Example 72, 5-Chloro-1-(3-(difluoromethoxy)-5-((S*)-3,3,3-trifluoro-2-methylpropyl)pyridin-2-yl)-2-ethyl-N-(((1r,4S)-4-(methylsulfonyl)cyclohexyl)methyl)-1H-imidazole-4-carboxamide] |  |
| 6.82 |  | 6.43 | 44% |  |  |  | CCc1nc(C(=O)NC[C@H]2CC[C@H](S(C)(=O)=O)CC2)cn1-c1c(F)cc(CC(C)C)cc1F [Example 82, 1-(2,6-Difluoro-4-isobutylphenyl)-2-ethyl-N-(((1r,4r)-4-(methylsulfonyl)cyclohexyl)methyl)-1H-imidazole-4-carboxamide] |  |
| 6.96 | 76% | 6.36 |  |  |  |  | CCc1nc(C(=O)NC[C@]2(O)CC[C@@H](S(C)(=O)=O)CC2)c(C)n1-c1ncc(CC(C(F)(F)F)C(F)(F)F)cc1OC(F)F [Example 76, 1-(3-(Difluoromethoxy)-5-(3,3,3-trifluoro-2-(trifluoromethyl)propyl)pyridin-2-yl)-2-ethyl-N-(((1s,4s)-1-hydroxy-4-(methylsulfonyl)cyclohexyl)methyl)-5-methyl-1H-imidazole-4-carboxamide] |  |
| 6.08 |  | 5.85 |  | 57% |  |  | CCc1nc(C(=O)NC[C@]2(O)CC[C@@H](S(C)(=O)=O)CC2)c(C#N)n1-c1ncc(CCC(F)(F)F)cc1OC [Example 120, 5-Cyano-2-ethyl-N-(((1s,4s)-1-hydroxy-4-(methylsulfonyl)cyclohexyl)methyl)-1-(3-methoxy-5-(3,3,3-trifluoropropyl)pyridin-2-yl)-1H-imidazole-4-carboxamide] |  |
| 7.30 |  | 6.44 | 80% |  |  |  | CCc1nc(C(=O)NC[C@]2(O)CC[C@@H](S(C)(=O)=O)CC2)cn1-c1ccc(C[C@H](C)C(F)(F)F)cc1OC (single isomer, unassigned) [Example 19, 2-Ethyl-N-(((1s,4R)-1-hydroxy-4-(methylsulfonyl)cyclohexyl)methyl)-1-(2-methoxy-4-((S*)-3,3,3-trifluoro-2-methylpropyl)phenyl)-1H-imidazole-4-carboxamide] |  |
| 8.09 |  | 7.64 |  |  | 63% |  | CCc1nc(C(=O)NC[C@H]2CC[C@H](S(C)(=O)=O)CC2)c(Cl)n1-c1c(F)cc(CC(C)C(F)(F)F)cc1F (stereo partly drawn) [Example 85, 5-Chloro-1-(2,6-difluoro-4-(3,3,3-trifluoro-2-methylpropyl)phenyl)-2-ethyl-N-(((1r,4r)-4-(methylsulfonyl)cyclohexyl)methyl)-1H-imidazole-4-carboxamide] |  |
| 7.47 | 116% | 7.04 |  |  |  |  | CCc1nc(C(=O)NC[C@H]2CC[C@H](S(C)(=O)=O)CC2)c(Cl)n1-c1ncc(CC(C)(C)C(F)(F)F)cc1C [Example 74, 5-Chloro-2-ethyl-1-(3-methyl-5-(3,3,3-trifluoro-2,2-dimethylpropyl)pyridin-2-yl)-N-(((1r,4r)-4-(methylsulfonyl)cyclohexyl)methyl)-1H-imidazole-4-carboxamide] |  |
| 7.28 | 103% | 6.77 |  |  |  |  | CCc1nc(C(=O)NC[C@]2(O)CC[C@@H](S(C)(=O)=O)C[C@H]2O)c(Cl)n1-c1ncc(CC(C(F)(F)F)C(F)(F)F)cc1OC(F)F (stereo in doubt) [Example 67, 5-Chloro-1-(3-(difluoromethoxy)-5-(3,3,3-trifluoro-2-(trifluoromethyl)propyl)pyridin-2-yl)-N-(((1R*,2R*,4R*)-1,2-dihydroxy-4-(methylsulfonyl)cyclohexyl)methyl)-2-ethyl-1H-imidazole-4-carboxamide] |  |
| 8.14 | 102% | 7.41 |  |  |  |  | CCc1nc(C(=O)NC[C@H]2CC[C@H](S(N)(=O)=O)CC2)c(Cl)n1-c1ncc(CC(C)(C)C(F)(F)F)cc1OC(F)F [Example 69, 5-Chloro-1-(3-(difluoromethoxy)-5-(3,3,3-trifluoro-2,2-dimethylpropyl)pyridin-2-yl)-2-ethyl-N-(((1r,4r)-4-sulfamoylcyclohexyl)methyl)-1H-imidazole-4-carboxamide] |  |
| 7.03 |  | 6.48 | 65% |  |  |  | CCc1nc(C(=O)NC[C@H]2CC[C@H](S(C)(=O)=O)CC2)c(C#N)n1-c1ccc(CCC(F)(F)F)cc1F [Example 93, 5-Cyano-2-ethyl-1-(2-fluoro-4-(3,3,3-trifluoropropyl)phenyl)-N-(((1r,4r)-4-(methylsulfonyl)cyclohexyl)methyl)-1H-imidazole-4-carboxamide] |  |
| 8.32 |  | 7.82 |  |  |  | 94% | [2H]C([2H])([2H])Oc1cc(CC(C)(C)C(F)(F)F)ccc1-n1c(CC)nc(C(=O)NC[C@H]2CC[C@H](S(C)(=O)=O)CC2)c1F [Example 33, 2-Ethyl-5-fluoro-1-(2-(methoxy-d3)-4-(3,3,3-trifluoro-2,2-dimethylpropyl)phenyl)-N-(((1r,4r)-4-(methylsulfonyl)cyclohexyl)methyl)-1H-imidazole-4-carboxamide] |  |
| 7.85 |  | 7.11 | 101% |  |  |  | [2H]C([2H])([2H])Oc1cc(CC(C)(C)C(F)(F)F)ccc1-n1c(CC)nc(C(=O)NC[C@]2(C#N)CC[C@@H](S(C)(=O)=O)CC2)c1F [Example 31, N-(((1s*,4s*)-1-Cyano-4-(methylsulfonyl)cyclohexyl)methyl)-2-ethyl-5-fluoro-1-(2-(methoxy-d3)-4-(3,3,3-trifluoro-2,2-dimethylpropyl)phenyl)-1H-imidazole-4-carboxamide] |  |
| 9.72 |  | 8.57 |  |  |  | 106% | C#Cc1c(C(=O)NC[C@H]2CC[C@H](S(C)(=O)=O)CC2)nc(CC)n1-c1ccc(CC(C)(C)C(F)(F)F)cc1OC(F)F [Example 41, 1-(2-(Difluoromethoxy)-4-(3,3,3-trifluoro-2,2-dimethylpropyl)phenyl)-2-ethyl-5-ethynyl-N-(((1r,4r)-4-(methylsulfonyl)cyclohexyl)methyl)-1H-imidazole-4-carboxamide] |  |
| 7.24 | 113% | 7.27 |  |  |  |  | CCc1nc(C(=O)NC[C@H]2CC[C@H](S(C)(=O)=O)CC2)c(C)n1-c1ncc(C[C@@H](C)C(F)(F)F)cc1OC(F)F (single isomer, unassigned) [Example 80, 1-(3-(Difluoromethoxy)-5-((R*)-3,3,3-trifluoro-2-methylpropyl)pyridin-2-yl)-2-ethyl-5-methyl-N-(((1r,4R)-4-(methylsulfonyl)cyclohexyl)methyl)-1H-imidazole-4-carboxamide] |  |
| 7.70 | 101% | 7.11 |  |  |  |  | CCc1nc(C(=O)NC[C@H]2CC[C@H](S(C)(=O)=O)CC2)c(C)n1-c1ncc(CC(C(F)(F)F)C(F)(F)F)cc1OC(F)F [Example 77, 1-(3-(Difluoromethoxy)-5-(3,3,3-trifluoro-2-(trifluoromethyl)propyl)pyridin-2-yl)-2-ethyl-5-methyl-N-(((1r,4r)-4-(methylsulfonyl)cyclohexyl)methyl)-1H-imidazole-4-carboxamide] |  |
| 8.66 |  | 8.49 |  |  |  | 86% | CCc1nc(C(=O)NC[C@]2(O)CC[C@@H](S(C)(=O)=O)CC2)c(Cl)n1-c1ccc(CC(C)(C)C(F)(F)F)c(OC)c1 [Example 43, 5-Chloro-2-ethyl-N-(((1s,4s)-1-hydroxy-4-(methylsulfonyl)cyclohexyl)methyl)-1-(3-methoxy-4-(3,3,3-trifluoro-2,2-dimethylpropyl)phenyl)-1H-imidazole-4-carboxamide] |  |

| Structure (SMILES) | pKd [1] | inhibition at 3 µM [2, 3] | pIC50 [2] | inhibition at 2 µM [2, 4] | inhibition at 6 µM ([2]; read-out: RORγt (FL) Reporter Assay A or B, % inhibition @ 6 μM, 6 μM compound concentration) | inhibition at 0.22 µM ([2]; 0.22 μM compound concentration (******), read-out: RORγt (FL) Reporter Assay A or B, % inhibition) | inhibition at 0.67 µM [2, 4] | RORγt (FL) Reporter Assay A or B, % inhibition ([2]; 3 μM compound concentration (*)) |
| --- | --- | --- | --- | --- | --- | --- | --- | --- |
| CCc1nc(C(=O)NC[C@H]2CC[C@H](S(=O)(=O)NC)CC2)c(Cl)n1-c1ncc(CC(C)(C)C(F)(F)F)cc1OC(F)F [Example 68, 5-Chloro-1-(3-(difluoromethoxy)-5-(3,3,3-trifluoro-2,2-dimethylpropyl)pyridin-2-yl)-2-ethyl-N-(((1r,4r)-4-(N-methylsulfamoyl)cyclohexyl)methyl)-1H-imidazole-4-carboxamide] | 8.43 |  | 7.30 |  |  |  |  | 103* % |
| Cc1nc(C(=O)NC[C@@H]2CC[C@@H](S(C)(=O)=O)C[C@H]2O)c(C#N)n1-c1ccc(CC(C)(C)C(F)(F)F)cc1OC(F)F (racemic) [Example 55, 5-Cyano-1-(2-(difluoromethoxy)-4-(3,3,3-trifluoro-2,2-dimethylpropyl)phenyl)-N-(((1RS,2SR,4SR)-2-hydroxy-4-(methylsulfonyl)cyclohexyl)methyl)-2-methyl-1H-imidazole-4-carboxamide] | 7.70 | 93% | 7.18 |  |  |  |  |  |
